PubChem BioAssay (NCI)
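Test compounds were applied to cells in 96-well plates for 48 hours at 5 doses. GI50: concentration for 50% inhibition of growth. TGI: total growth inhibition.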

How the values were obtained:
Test in all cases: growth of human tumour cells (NCI), 48 h
[1] = tested on: MDA-MB-468 breast
[2] = tested on: A498 renal
[3] = tested on: A549 NSCLC
[4] = tested on: ACHN renal
[5] = tested on: BT-549 breast
[6] = tested on: COLO 205 colon
[7] = tested on: DU-145 prostate
[8] = tested on: EKVX NSCLC
[9] = tested on: HCC-2998 colon
[10] = tested on: HCT-116 colon
[11] = tested on: HCT-15 colon
[12] = tested on: HL-60(TB) leukemia
[13] = tested on: HS 578T breast
[14] = tested on: IGROV1 ovarian
[15] = tested on: K-562 leukemia
[16] = tested on: KM12 colon
[17] = tested on: LOX IMVI melanoma
[18] = tested on: M14 melanoma
[19] = tested on: MALME-3M melanoma
[20] = tested on: MCF7 breast
[21] = tested on: MDA-MB-231 breast
[22] = tested on: MDA-MB-435
[23] = tested on: MOLT-4 leukemia
[24] = tested on: NCI-H460 lung
[25] = tested on: NCI-H522 lung
[26] = tested on: OVCAR-3 ovarian
[27] = tested on: OVCAR-4 ovarian
[28] = tested on: OVCAR-5 ovarian
[29] = tested on: OVCAR-8 ovarian
[30] = tested on: PC-3 prostate
[31] = tested on: RPMI-8226 leukemia
[32] = tested on: RXF 393 renal
[33] = tested on: SF-268 CNS
[34] = tested on: SF-295 CNS
[35] = tested on: SF-539 CNS
[36] = tested on: SK-MEL-2 melanoma
[37] = tested on: SK-MEL-28 melanoma
[38] = tested on: SK-MEL-5 melanoma
[39] = tested on: SN12C renal
[40] = tested on: SNB-19 CNS
[41] = tested on: SNB-75 CNS
[42] = tested on: SW-620 colon
[43] = tested on: T-47D breast
[44] = tested on: TK-10 renal
[45] = tested on: U251 CNS
[46] = tested on: UACC-62 melanoma
[47] = tested on: UO-31 renal

## CC(C)(C)C[C@H]1NC(C(=O)NCC[C@H](O)CO)[C@H](c2cccc(Cl)c2)[C@@]12C(=O)Nc1cc(Cl)c(F)cc12 (some centres not stated)
[1]
  GI50: 12.4 µM
  TGI: 27.3 µM

## CCN(CC)S(=O)(=O)c1ccc(OC)c(Nc2ncc(-c3ccccc3)o2)c1
[1]
  GI50: > 10.4 µM
  TGI: > 25 µM

## COC(=O)[C@]12CC[C@@H](C)[C@H](C)[C@@H]1C1=CC[C@@H]3[C@@]4(C)C[C@@H](OC(C)=O)[C@H](O)[C@@](C)(COC(C)=O)[C@@H]4[C@H](O)C[C@@]3(C)[C@]1(C)CC2
[1]
  GI50: 2.33 µM
  TGI: 7.27 µM

## CCCCCn1c(=N)n(CC(O)COc2cccc(C)c2)c2ccccc21 (configuration not stated)
[1]
  GI50: 2.38 µM
  TGI: 5.29 µM

## N#Cc1cnc2cc(OC[C@H](O)CO)c(NC(=O)CC3CSSC3)cc2c1Nc1ccc(OCc2cccc(F)c2)c(Cl)c1
[1]
  GI50: 0.118 µM
  TGI: 0.363 µM

## COc1c(CCC[P+](c2ccccc2)(c2ccccc2)c2ccccc2)cc2c(c1OC)OCO2
[1]
  GI50: 0.256 µM
  TGI: 1.18 µM

## Cc1ccc2c(ccc3c[n+]4c5ccccc5ccc4n32)c1
[1]
  GI50: 0.541 µM
  TGI: 2.47 µM

## CCN1C(=O)N(CC)C2C1NN=c1s/c(=C\c3cccnc3)c(=O)n12 (configuration not stated)
[1]
  GI50: 0.363 µM
  TGI: > 100 µM

## COC(=O)[C@H](Cc1cn(C)cn1)NC(=O)[C@H](Cc1c[nH]c2ccccc12)NC(=O)Nc1cc(C(F)(F)F)cc(C(F)(F)F)c1
[1]
  GI50: > 10 µM
  TGI: > 10 µM

## C[C@@H](C(=O)Nc1ccc(Cl)cc1)C1CCC(c2ccnc3ccc(F)cc23)CC1 (some centres not stated)
[1]
  GI50: 2.7 µM
  TGI: 14.1 µM

## CCN(Cc1ccc(F)c(F)c1)c1ccc(CO)c(Cl)c1
[1]
  GI50: 0.0162 µM
  TGI: 0.0438 µM

## C=CCc1c2c(c(OC)c3ccoc13)C(=O)/C(=C/c1ccccc1OC)O2
[1]
  GI50: 2.46 µM
  TGI: 7.85 µM

## CCN(CC)c1ccc(C(=C2C=CC(=[N+](CC)Cc3cccc(S(=O)(=O)O)c3)C=C2)c2ccc(N(CC)Cc3cccc(S(=O)(=O)O)c3)cc2)cc1
[1]
  GI50: 2.58 µM
  TGI: 15.9 µM

## O=CNc1c(Cl)cc2c(c1Cl)Cc1cc([N+](=O)[O-])ccc1-2
[1]
  GI50: 0.317 µM
  TGI: 1.27 µM

## COC[C@@H](CC(C)C)N=C1NC(=O)/C(=C/c2ccc3ncsc3c2)N1
[2]
  GI50: 1.93 µM
  TGI: 7.93 µM
[3]
  GI50: 2.03 µM
  TGI: > 100 µM
[4]
  GI50: 2.46 µM
  TGI: 11.4 µM
[5]
  GI50: 1.56 µM
  TGI: 7.59 µM
[6]
  GI50: 1.94 µM
  TGI: 6.28 µM
[7]
  GI50: 3.06 µM
  TGI: > 100 µM
[8]
  GI50: 3.27 µM
  TGI: 75.8 µM
[9]
  GI50: 4.03 µM
  TGI: 56.4 µM
[10]
  GI50: 1.45 µM
  TGI: 66.4 µM
[11]
  GI50: 2.66 µM
  TGI: > 100 µM
[12]
  GI50: 3.11 µM
  TGI: 8.36 µM
[13]
  GI50: 2.26 µM
  TGI: 8.33 µM
[14]
  GI50: 2.42 µM
  TGI: 22 µM
[15]
  GI50: 2.8 µM
  TGI: > 100 µM
[16]
  GI50: 3.19 µM
  TGI: 34.5 µM
[17]
  GI50: 2.57 µM
  TGI: > 100 µM
[18]
  GI50: 3.88 µM
  TGI: 22 µM
[19]
  GI50: 2.53 µM
  TGI: 7.29 µM
[20]
  GI50: 2.64 µM
  TGI: > 100 µM
[21]
  GI50: 3.65 µM
  TGI: > 100 µM
[22]
  GI50: 3.56 µM
  TGI: 18.7 µM
[1]
  GI50: 1.98 µM
  TGI: 10.8 µM
[23]
  GI50: 2.68 µM
  TGI: 15.4 µM
[24]
  GI50: 3.08 µM
  TGI: > 100 µM
[25]
  GI50: 1.16 µM
  TGI: 4.89 µM
[26]
  GI50: 1.22 µM
  TGI: 4.32 µM
[27]
  GI50: 6.14 µM
  TGI: 79.3 µM
[28]
  GI50: 3.04 µM
  TGI: > 100 µM
[29]
  GI50: 2.88 µM
  TGI: > 100 µM
[30]
  GI50: 3.9 µM
  TGI: 52.7 µM
[31]
  GI50: 2.8 µM
  TGI: 9.52 µM
[32]
  GI50: 1.91 µM
  TGI: 4.96 µM
[33]
  GI50: 3.41 µM
  TGI: 19 µM
[34]
  GI50: 3.46 µM
  TGI: > 100 µM
[35]
  GI50: 1.04 µM
  TGI: 4.54 µM
[36]
  GI50: 1.88 µM
  TGI: 4.32 µM
[37]
  GI50: 2.69 µM
  TGI: 8.69 µM
[38]
  GI50: 2.8 µM
  TGI: 8.85 µM
[39]
  GI50: 2.71 µM
  TGI: 30 µM
[40]
  GI50: 1.76 µM
  TGI: 48.3 µM
[41]
  GI50: 1.04 µM
  TGI: 6.75 µM
[42]
  GI50: 2.14 µM
  TGI: 20 µM
[43]
  GI50: 1.96 µM
  TGI: 9.01 µM
[44]
  GI50: 2.95 µM
  TGI: > 100 µM
[45]
  GI50: 2.58 µM
  TGI: > 100 µM
[46]
  GI50: 2.19 µM
  TGI: 8.63 µM
[47]
  GI50: 2.36 µM
  TGI: 6.7 µM
